Measurements from patent US9908848B2, “Amide derivatives of lactam based N-acylethanolamine acid amidase (NAAA) inhibitors” (The Regents of the University of California, priority 2013, dated 2018).

System: carrageenan-induced paw edema and heat hyperalgesia
Test: Carrageenan-induced inflammation (paw edema, heat hyperalgesia)
Type: in vivo
Settings: mice, oral administration (p.o.), 3-30 mg/kg, dose- and time-dependent

`CCCCC/C=C/CC(=O)N[C@H]1CNC1=O` [Example 5, (E)-N-[(3S)-2-Oxoazetidin-3-yl]-non-3-enamide] was tested, and the heat hyperalgesia was “markedly attenuated”.

In the case of `CCCCC/C=C/CC(=O)N[C@H]1CNC1=O` [Example 5, (E)-N-[(3S)-2-Oxoazetidin-3-yl]-non-3-enamide], the paw edema is reported as “markedly attenuated”.

Target: T1, human NAAA (Homo sapiens, UniProt Q02083)
T1 construct: made in house; host or cells: HEK293 cells, stably transfected; soluble fraction after freeze/thaw
T1 sequence (Q02083 29-359): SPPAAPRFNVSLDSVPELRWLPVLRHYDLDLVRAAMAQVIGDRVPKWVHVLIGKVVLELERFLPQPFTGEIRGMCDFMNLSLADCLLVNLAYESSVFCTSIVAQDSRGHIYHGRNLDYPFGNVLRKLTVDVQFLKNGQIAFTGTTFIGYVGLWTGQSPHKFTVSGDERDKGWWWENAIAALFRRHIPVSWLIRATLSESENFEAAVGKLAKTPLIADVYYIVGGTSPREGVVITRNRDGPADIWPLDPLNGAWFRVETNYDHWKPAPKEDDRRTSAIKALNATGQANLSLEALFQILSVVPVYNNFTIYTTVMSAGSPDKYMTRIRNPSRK
Test: Fluorogenic h-NAAA assay
Type: biochemical
Settings: @ 2.5 μM; read-out: h-NAAA Fluorogenic assay % inhib.
Method: Hek293 cells stably transfected with the human NAAA coding sequence cloned from a human spleen cDNA library were used as enzyme source. Recombinant HEK-hNAAA pellets were resuspended in homogenizing buffer, and sonicated. Samples were centrifuged at 800×g for 15 min at 4° C. and the supernatants were ultracentrifuged at 12,000×g for 30 min at 4° C. The pellets were resuspended in PBS pH 7.4 on ice and subjected to a freeze/thaw cycle at −80° C. (two freeze/thaw cycles at −80° C. for Examples 34-37). The suspension was finally centrifuged at 105,000×g for 1 h at 4° C. Protein concentration was measured and samples stored at −80° C. until use.
The assay was run in Optiplate 96-wells black plates, in a total reaction volume of 200 μL. NAAA protein preparation (4.0 μg for Examples except 34-37, which were 20.0 μg) was pre-incubated for 10 min with various concentrations of test compounds or vehicle control (5% DMSO) in 100 mM citrate/phosphate buffer (pH 4.5) containing 3.0 mM DTT, 0.1% Triton X-100, 0.05% BSA, 150 mM NaCl. N-(4-methyl-2-oxo-chromen-7-yl)-hexadecanamide was used as a substrate (5.0 μM) and the reaction carried over for 30 min at 37° C. The samples were then read in a Perkin Elmer Envision plate reader using an excitation wavelength of 360 nm and emission 460 nm. IC50 values were calculated by non-linear regression analysis of log [concentration]/inhibition curves using GraphPad Prism 5 (GraphPad Software Inc., CA—USA) applying a standard slope curve fitting.

In order of rising inhibition at 2.5 µM:
1. CCCCc1ccc(C(=O)N[C@H]2CNC2=O)cc1 [Example 33, 4-Butyl-N-[(3S)-2-oxoazetidin-3-yl]-benzamide]  16%
2. CCCCCCCCC(=O)N(C)[C@H]1CNC1=O [Example 27, N-Methyl-N-[(3S)-2-Oxoazetidin-3-yl]-nonanamide]  20%

Same assay, conditions: @ 50 μM; read-out: h-NAAA Fluorogenic assay % inhib.

In order of falling inhibition at 50 µM:
1. C[C@@H]1NC(=O)[C@H]1NC(=O)CCc1ccc(-c2ccccc2)cc1 [Example 29, N-[(2S,3S)-2-methyl-4-oxo-azetidin-3-yl]-3-(4-phenylphenyl)-propanamide]  60%
2. O=C(CCc1ccccc1)N[C@H]1CNC1=O [Example 19, 3-Phenyl-N-[(3S)-2-oxoazetidin-3-yl]-propanamide]  15%

Same assay, conditions: @100 μM

In the case of `O=C(CCCCc1ccccc1)N[C@@H]1CNC1=O` [Example 26, 5-Phenyl-N-[(3R)-2-oxoazetidin-3-yl]-pentanamide], the “h-NAAA Fluorogenic assay (n.a.)” value is reported as “n.a. (n.a. = <10% inhib.@100 μM)”.
For `O=C(CCc1ccc(-c2ccccc2)cc1)N[C@H]1CNC1=O` [Example 18, 3-(4-Phenylphenyl)-N-[(3S)-2-oxoazetidin-3-yl]-propanamide], the “h-NAAA Fluorogenic assay (n.a.)” value was “n.a. (n.a. = <10% inhib.@100 μM)”.
`O=C(CCc1ccccc1)N[C@@H]1CNC1=O` [Example 20, 3-Phenyl-N-[(3R)-2-oxoazetidin-3-yl]-propanamide] was tested, and the “h-NAAA Fluorogenic assay (n.a.)” value was “n.a. (n.a. = <10% inhib.@100 μM)”.

Same assay, conditions: recombinant HEK-hNAAA preparation

In order of rising IC50:
1. CCCCCCCCCCC(=O)N[C@H]1CNC1=O [Example 24, N-[(3S)-2-Oxoazetidin-3-yl]-undecanamide]  43 nM
2. CCCCCCCC(C)C(=O)N[C@H]1CNC1=O (mixture of isomers) [Example 36, (2R)-2-methyl-N-[(3S)-2-oxoazetidin-3-yl]nonanamide and (2S)-2-methyl-N-[(3S)-2-oxoazetidin-3-yl]nonanamide]  220 nM
3. O=C(CCCCCC1CCCCC1)N[C@H]1CNC1=O [Example 17, 6-Cyclohexyl-N-[(3S)-2-oxoazetidin-3-yl]-hexanamide]  275 nM
4. CCCCCCCCC(=O)N[C@@H]1C(=O)N[C@H]1C [Example 28, N-[(2S,3S)-2-methyl-4-oxo-azetidin-3-yl]-nonanamide]  380 nM
5. CCCCCCCC(C)(C)C(=O)N[C@H]1CNC1=O [Example 37, 2,2-dimethyl-N-[(3S)-2-oxoazetidin-3-yl]nonanamide]  758 nM
6. CCCCCCCC(=O)N[C@H]1CNC1=O [Example 22, N-[(3S)-2-Oxoazetidin-3-yl]-octanamide]  930 nM
7. CCCCC/C=C/CC(=O)N[C@H]1CNC1=O [Example 5, (E)-N-[(3S)-2-Oxoazetidin-3-yl]-non-3-enamide]  1340 nM
8. CCCCC/C=C\CC(=O)N[C@H]1CNC1=O [Example 6, (Z)—N-[(3S)-2-Oxoazetidin-3-yl]-non-3-enamide]  1940 nM
9. CCCC[C@H]1CC[C@H](C(=O)N[C@H]2CNC2=O)CC1 [Example 34, (1r,4R)-4-butyl-N—((S)-2-oxoazetidin-3-yl)cyclohexanecarboxamide]  4020 nM
10. CCCCCCC(=O)N[C@H]1CNC1=O [Example 21, N-[(3S)-2-Oxoazetidin-3-yl]-heptanamide]  7830 nM
11. O=C(CCCCCc1ccccc1)N[C@H]1CNC1=O [Example 31, 6-Phenyl-N-[(3S)-2-oxoazetidin-3-yl]-hexanamide]  13400 nM
12. CCCc1ccc(CC(=O)N[C@H]2CNC2=O)cc1 [Example 35, N-[(3S)-2-oxoazetidin-3-yl]-2-(4-propylphenyl)acetamide]  15600 nM
13. O=C(CCCCc1ccccc1)N[C@H]1CNC1=O [Example 25, 5-Phenyl-N-[(3S)-2-oxoazetidin-3-yl]-pentanamide]  33900 nM
14. CCCCCCCCC(=O)N[C@@H]1CNC1=O [Example 4, N-[(3R)-2-Oxoazetidin-3-yl]-nonanamide]  40000 nM
15. O=C(CCCc1ccccc1)N[C@H]1CNC1=O [Example 32, 4-Phenyl-N-[(3S)-2-oxoazetidin-3-yl]-butanamide]  110000 nM

Target: T2, r-NAAA (Rattus norvegicus, UniProt Q5KTC7)
T2 construct: Lysosomal NAAA protein preparation was obtained by homogenizing male Sprague-Dawley rat lungs; tissue Charles River; host or cells: male Sprague-Dawley rat lung, soluble lysosomal fraction
T2 sequence (Q5KTC7 34-362): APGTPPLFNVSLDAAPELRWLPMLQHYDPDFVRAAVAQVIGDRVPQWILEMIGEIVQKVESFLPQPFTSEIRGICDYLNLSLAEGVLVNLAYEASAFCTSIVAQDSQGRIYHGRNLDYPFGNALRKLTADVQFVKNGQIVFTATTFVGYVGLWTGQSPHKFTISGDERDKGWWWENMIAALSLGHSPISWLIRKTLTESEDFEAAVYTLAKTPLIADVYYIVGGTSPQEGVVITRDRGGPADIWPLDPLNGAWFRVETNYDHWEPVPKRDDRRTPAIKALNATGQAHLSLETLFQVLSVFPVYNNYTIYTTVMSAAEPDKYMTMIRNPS
Test: UPLC/MS r-NAAA assay
Type: biochemical
Settings: @ 3 μM; read-out: r-NAAA UPLC/MS assay % inhib.
Method: Lysosomal NAAA protein preparation was obtained by homogenizing male Sprague-Dawley rat lungs (Charles River) in 20 mM Tris-HCl buffer pH 7.4 containing 0.32M sucrose. Samples were centrifuged at 800×g for 15 min at 4° C. Supernatants were centrifuged at 12,000×g for 30 min at 4° C. Pellets were then resuspended in PBS pH 7.4 and subjected to a freeze/thaw cycle at −80° C. The suspension was finally centrifuged at 105,000 g for 1 h at 4° C. The supernatant was used in enzymatic assays.
NAAA preparations were pre-incubated with various concentrations of test compounds or vehicle control in 100 mM NaH2PO4/Citrate buffer, 1% Triton-X, 3 mM DTT (pH 4.5) for 30 min at 37° C. Samples were incubated with heptadecenoylethanolamide (50 μM, Avanti Polar Lipids) at 37° C. for 30 min. The reaction was terminated by addition of cold methanol containing heptadecanoic acid (NuCheck Prep) as internal standard. Samples were analyzed by UPLC/MS (Acquity, Waters). Heptadecenoic and heptadecanoic acids were eluted on an Acquity UPLC BEH C18 column (50 mm length, 2.1 mm i.d., 1.7 μm pore size, Waters) isocratically at 0.5 mL/min for 1.5 min with a solvent mixture of 95% methanol and 5% H2O, both containing 0.25% Acetic Acid and 5.0 mM ammonium acetate. The column temperature was 40° C. Electrospray ionization was in the negative mode, capillary voltage was 0.5 kV, cone voltage was […], desolvation temperature was 500° C. N2 was used as drying gas at a flow rate of 1000 L/hour and a temperature of 500° C. The [M−H]^− ion was monitored in the selected-ion monitoring mode (m/z values: heptadecenoic acid 267.37, heptadecanoic acid 269.37). Calibration curves were generated using commercial heptadecenoic acid (NuCheck Prep) Inhibition of NAAA activity was calculated as reduction of heptadecenoic acid in the samples compared to vehicle controls. IC50 values were calculated by non-linear regression analysis of log [concentration]/inhibition curves using GraphPad Prism 5 (GraphPad Software Inc., CA—USA) applying a standard slope curve fitting.

In order of falling inhibition at 3 µM:
1. CCCCCCCCC(=O)N(C)[C@H]1CNC1=O [Example 27, N-Methyl-N-[(3S)-2-Oxoazetidin-3-yl]-nonanamide]  40%
2. O=C(CCCCCCc1ccccc1)N[C@@H]1CNC1=O [Example 8, 7-Phenyl-N-[(3R)-2-Oxoazetidin-3-yl]-heptanamide]  30%
3. O=C(N[C@H]1CNC1=O)c1ccc(-c2ccccc2)cc1 [Example 1, 4-Phenyl-N-[(3S)-2-oxoazetidin-3-yl]-benzamide]  15%
4. O=C(N[C@@H]1CNC1=O)c1ccc(OCc2ccccc2)cc1 [Example 12, 4-Benzyloxy-N-[(3R)-2-oxoazetidin-3-yl]-benzamide]  10%
5. O=C(N[C@@H]1CNC1=O)c1ccc(-c2ccccc2)cc1 [Example 2, 4-Phenyl-N-[(3R)-2-oxoazetidin-3-yl]-benzamide]  10%

Same assay, conditions: @ 30 μM; read-out: r-NAAA UPLC/MS assay % inhib.

In order of rising inhibition at 30 µM:
1. O=C(CCCOCc1ccccc1)N[C@@H]1CNC1=O [Example 10, 4-Benzyloxy-N-[(3R)-2-oxoazetidin-3-yl]-butanamide]  10%
2. O=C(N[C@H]1CNC1=O)c1ccc(OCc2ccccc2)cc1 [Example 11, 4-Benzyloxy-N-[(3S)-2-oxoazetidin-3-yl]-benzamide]  10%
3. O=C(C/C=C/c1ccccc1)N[C@H]1CNC1=O [Example 15, (E)-N-[(3S)-2-Oxoazetidin-3-yl]-4-phenyl-but-3-enamide]  20%

Same assay, conditions: @100 μM

With `CC1(C(=O)N[C@H]2CNC2=O)CCCCC1` [Example 13, 1-Methyl-N-[(3S)-2-oxoazetidin-3-yl]-cyclohexane-carboxamide] the “r-NAAA UPLC/MS assay (n.a.)” value was “n.a. (n.a. = <10% inhib.@100 μM)”.
With `O=C(CCCOCc1ccccc1)N[C@H]1CNC1=O` [Example 9, 4-Benzyloxy-N-[(3S)-2-oxoazetidin-3-yl]-butanamide] the “r-NAAA UPLC/MS assay (n.a.)” value was “n.a. (n.a. = <10% inhib.@100 μM)”.
`CC1(C(=O)N[C@@H]2CNC2=O)CCCCC1` [Example 14, 1-Methyl-N-[(3R)-2-oxoazetidin-3-yl]-cyclohexane-carboxamide] was tested, and the “r-NAAA UPLC/MS assay (n.a.)” value was “n.a. (n.a. = <10% inhib.@100 μM)”.

Same assay, conditions: rat lung lysosomal NAAA preparation

In order of falling IC50:
1. CCCCC/C=C/CC(=O)N[C@H]1CNC1=O [Example 5, (E)-N-[(3S)-2-Oxoazetidin-3-yl]-non-3-enamide]  2300 nM
2. O=C(CCCCC1CCCCC1)N[C@H]1CNC1=O [Example 16, 5-Cyclohexyl-N-[(3S)-2-oxoazetidin-3-yl]-pentanamide]  1000 nM
3. CCCCC/C=C\CC(=O)N[C@H]1CNC1=O [Example 6, (Z)—N-[(3S)-2-Oxoazetidin-3-yl]-non-3-enamide]  680 nM
4. O=C(CCCCCC1CCCCC1)N[C@H]1CNC1=O [Example 17, 6-Cyclohexyl-N-[(3S)-2-oxoazetidin-3-yl]-hexanamide]  130 nM
